Measurements taken from patent US20090018134A1, “Compounds - 945” (AstraZeneca AB, priority 2007, published 2009).

target: T1, mTOR (Homo sapiens, UniProt P42345); experiment: In Vitro mTOR Kinase Assay (Echo), Test (a)(ii); type: biochemical; conditions: table of enzyme assay Test (a)(ii); read-out: Test (a)(ii) IC50
T1 construct: FLAG; made in house
Procedure, shortened: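 Compounds were acoustically dispensed, then incubated with FLAG-tagged mTOR (1362-2549) for 2 hours at room temperature. Reactions were quenched with EDTA plus detection antibody and AlphaScreen beads and left overnight in the dark before reading. Loss of phospho-T389 signal gave IC50 values.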

T1 sequence (P42345 1362-2549): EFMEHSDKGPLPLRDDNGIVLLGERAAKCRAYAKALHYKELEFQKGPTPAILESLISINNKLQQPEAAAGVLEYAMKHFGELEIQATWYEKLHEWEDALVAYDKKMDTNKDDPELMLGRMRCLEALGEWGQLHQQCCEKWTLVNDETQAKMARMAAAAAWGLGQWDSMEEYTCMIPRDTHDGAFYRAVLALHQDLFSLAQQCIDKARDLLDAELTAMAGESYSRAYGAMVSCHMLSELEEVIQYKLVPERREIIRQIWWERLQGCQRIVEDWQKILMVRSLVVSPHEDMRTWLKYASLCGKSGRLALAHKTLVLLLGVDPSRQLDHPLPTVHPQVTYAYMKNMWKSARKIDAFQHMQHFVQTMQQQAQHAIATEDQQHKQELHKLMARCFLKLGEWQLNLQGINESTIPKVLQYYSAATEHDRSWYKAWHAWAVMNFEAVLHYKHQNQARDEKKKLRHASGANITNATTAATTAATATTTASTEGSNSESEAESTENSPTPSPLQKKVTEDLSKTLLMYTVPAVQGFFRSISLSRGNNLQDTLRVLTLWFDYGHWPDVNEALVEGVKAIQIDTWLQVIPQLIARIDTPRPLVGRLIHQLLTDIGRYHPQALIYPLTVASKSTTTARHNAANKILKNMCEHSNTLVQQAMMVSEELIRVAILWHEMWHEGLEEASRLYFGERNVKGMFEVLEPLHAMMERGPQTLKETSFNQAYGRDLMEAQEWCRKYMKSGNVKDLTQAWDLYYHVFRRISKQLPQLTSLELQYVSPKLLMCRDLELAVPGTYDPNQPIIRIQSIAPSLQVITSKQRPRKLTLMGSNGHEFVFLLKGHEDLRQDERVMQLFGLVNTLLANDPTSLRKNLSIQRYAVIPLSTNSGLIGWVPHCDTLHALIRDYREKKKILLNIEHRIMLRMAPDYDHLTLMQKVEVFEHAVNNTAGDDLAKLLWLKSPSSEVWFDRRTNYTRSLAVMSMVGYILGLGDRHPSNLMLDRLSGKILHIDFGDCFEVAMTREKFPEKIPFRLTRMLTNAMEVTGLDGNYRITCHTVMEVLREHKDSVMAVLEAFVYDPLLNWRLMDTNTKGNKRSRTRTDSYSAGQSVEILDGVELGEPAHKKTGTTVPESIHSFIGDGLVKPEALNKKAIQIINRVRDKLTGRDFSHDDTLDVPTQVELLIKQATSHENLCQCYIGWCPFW

Compound | IC50 [nM]
CNC(=O)Nc1ccc(-c2nc(N3CCOCC3)cc(C3(S(=O)(=O)c4ccccn4)CC3)n2)cc1 [Example 56a, 3-methyl-1-[4-[4-morpholin-4-yl-6-(1-pyridin-2-ylsulfonylcyclopropyl)pyrimidin-2-yl]phenyl]urea] | 2.26
CCNC(=O)Nc1ccc(-c2nc(N3CCOCC3)cc(C3(S(=O)(=O)c4ccccn4)CC3)n2)cc1 [Example 56b, 3-ethyl-1-[4-[4-morpholin-4-yl-6-(1-pyridin-2-ylsulfonylcyclopropyl)pyrimidin-2-yl]phenyl]urea] | 1.65
O=C(NCCO)Nc1ccc(-c2nc(N3CCOCC3)cc(C3(S(=O)(=O)c4ccccn4)CC3)n2)cc1 [Example 56c, 3-(2-hydroxyethyl)-1-[4-[4-morpholin-4-yl-6-(1-pyridin-2-ylsulfonylcyclopropyl)pyrimidin-2-yl]phenyl]urea] | 6.23
Cn1cc(NC(=O)Nc2ccc(-c3nc(N4CCOCC4)cc(C4(S(=O)(=O)c5ccccn5)CC4)n3)cc2)cn1 [Example 56d, 3-(1-methylpyrazol-4-yl)-1-[4-[4-morpholin-4-yl-6-(1-pyridin-2-ylsulfonylcyclopropyl)pyrimidin-2-yl]phenyl]urea] | 4.3
CNC(=O)Nc1ccc(-c2nc(N3CCOC[C@@H]3C)cc(C3(S(=O)(=O)c4ccc(NC)cc4F)CC3)n2)cc1 [Example 57, 1-[4-[4-[1-(2-Fluoro-4-methylaminophenyl)sulfonylcyclopropyl]-6-[(3S)-3-methylmorpholin-4-yl]pyrimidin-2-yl]phenyl]-3-methylurea] | 11.9
C[C@H]1COCCN1c1cc(C2(S(=O)(=O)c3ccc(F)cc3F)CC2)nc(-c2ccc(NC(=O)NC3CC3)cc2)n1 [Example 57a, 3-cyclopropyl-1-[4-[4-[1-(2,4-difluorophenyl)sulfonylcyclopro-pyl]-6-[(3S)-3-methylmorpholin-4-yl]pyrimidin-2-yl]phenyl]urea] | 10.4
C[C@H]1COCCN1c1cc(C2(S(=O)(=O)c3ccc(F)cc3F)CC2)nc(-c2ccc(NC(=O)NCCF)cc2)n1 [Example 57c, 1-[4-[4-[1-(2,4-difluorophenyl)sulfonylcyclopro-pyl]-6-[(3S)-3-methylmorpholin-4-yl]pyrimidin-2-yl]phenyl]-3-(2-fluoroethyl)urea] | 6.95
CCNC(=O)Nc1ccc(-c2nc(N3CCOC[C@@H]3C)cc(C3(S(=O)(=O)c4ccc(F)cc4F)CC3)n2)cc1 [Example 57e, 3-[4-[4-[1-(2,4-difluorophenyl)sulfonylcyclopro-pyl]-6-[(3S)-3-methylmorpholin-4-yl]pyrimidin-2-yl]phenyl]-1-ethylurea] | 7.28
C[C@H]1COCCN1c1cc(C2(S(=O)(=O)c3ccc(F)cc3F)CC2)nc(-c2ccc(NC(=O)Nc3cnn(C)c3)cc2)n1 [Example 57f, 1-[4-[4-[1-(2,4-difluorophenyl)sulfonylcyclopro-pyl]-6-[(3S)-3-methylmorpholin-4-yl]pyrimidin-2-yl]phenyl]-3-(1-methylpyrazol-4-yl)urea] | 10.6
C[C@H]1COCCN1c1cc(C2(S(=O)(=O)c3ccc(F)cc3F)CC2)nc(-c2ccc(NC(=O)NCC3(O)CC3)cc2)n1 [Example 57g, 1-[4-[4-[1-(2,4-difluorophenyl)sulfonylcyclopro-pyl]-6-[(3S)-3-methylmorpholin-4-yl]pyrimidin-2-yl]phenyl]-3-[(1-hydroxycyclopropyl)methyl]urea] | 58.5
CNC(=O)Nc1ccc(-c2nc(N3CCOC[C@@H]3C)cc(C3(S(=O)(=O)c4ccccc4F)CC3)n2)cc1 [Example 58, 1-[4-[4-[1-(2-Fluorophenyl)sulfonylcyclopropyl]-6-[(3S)-3-methylmorpholin-4-yl]pyrimidin-2-yl]phenyl]-3-methylurea] | 1.15
C[C@H]1COCCN1c1cc(C2(S(=O)(=O)c3ccccc3F)CC2)nc(-c2ccc(NC(=O)NC3CC3)cc2)n1 [Example 58a, 3-cyclopropyl-1-[4-[4-[1-(2-fluorophenyl)sulfonylcyclopropyl]-6-[(3S)-3-methylmorpholin-4-yl]pyrimidin-2-yl]phenyl]urea] | 3.39
C[C@H]1COCCN1c1cc(C2(S(=O)(=O)c3ccccc3F)CC2)nc(-c2ccc(NC(=O)NCCO)cc2)n1 [Example 58b, 1-[4-[4-[1-(2-fluorophenyl)sulfonylcyclopropyl]-6-[(3S)-3-methylmorpholin-4-yl]pyrimidin-2-yl]phenyl]-3-(2-hydroxyethyl)urea] | 2
C[C@H]1COCCN1c1cc(C2(S(=O)(=O)c3ccccc3F)CC2)nc(-c2ccc(NC(=O)NCCF)cc2)n1 [Example 58c, 3-(2-fluoroethyl)-1-[4-[4-[1-(2-fluorophenyl)sulfonylcyclopropyl]-6-[(3S)-3-methylmorpholin-4-yl]pyrimidin-2-yl]phenyl]urea] | 3.27
C[C@H]1COCCN1c1cc(C2(S(=O)(=O)c3ccccc3F)CC2)nc(-c2ccc(NC(=O)NCC(F)F)cc2)n1 [Example 58d, 3-(2,2-difluoroethyl)-1-[4-[4-[1-(2-fluorophenyl)sulfonylcyclopropyl]-6-[(3S)-3-methylmorpholin-4-yl]pyrimidin-2-yl]phenyl]urea] | 2.93
CCNC(=O)Nc1ccc(-c2nc(N3CCOC[C@@H]3C)cc(C3(S(=O)(=O)c4ccccc4F)CC3)n2)cc1 [Example 58e, 1-ethyl-3-[4-[4-[1-(2-fluorophenyl)sulfonylcyclopropyl]-6-[(3S)-3-methylmorpholin-4-yl]pyrimidin-2-yl]phenyl]urea] | 2.56
C[C@H]1COCCN1c1cc(C2(S(=O)(=O)c3ccccc3F)CC2)nc(-c2ccc(NC(=O)Nc3cnn(C)c3)cc2)n1 [Example 58f, 1-[4-[4-[1-(2-fluorophenyl)sulfonylcyclopropyl]-6-[(3S)-3-methylmorpholin-4-yl]pyrimidin-2-yl]phenyl]-3-(1-methylpyrazol-4-yl)urea] | 2.67
C[C@H]1COCCN1c1cc(C2(S(=O)(=O)c3ccccc3F)CC2)nc(-c2ccc(NC(=O)NCC3(O)CC3)cc2)n1 [Example 58g, 1-[4-[4-[1-(2-fluorophenyl)sulfonylcyclopropyl]-6-[(3S)-3-methylmorpholin-4-yl]pyrimidin-2-yl]phenyl]-3-[(1-hydroxycyclopropyl)methyl]urea] | 10.2
CNC(=O)Nc1ccc(-c2nc(N3CCOC[C@@H]3C)cc(C3(S(=O)(=O)c4c(C)noc4C)CC3)n2)cc1 [Example 59] | 8.82
CNC(=O)Nc1ccc(-c2nc(N3CCOC[C@@H]3C)cc(C3(S(=O)(=O)c4cc(F)ccc4F)CC3)n2)cc1 [Example 60, 1-[4-[4-[1-(2,5-Difluorophenyl)sulfonylcyclopropyl]-6-[(3S)-3-methylmorpholin-4-yl]pyrimidin-2-yl]phenyl]-3-methylurea] | 12

Next, values leading:

IC50 [nM] | Compound
22.2 | Cc1noc(C)c1S(=O)(=O)C1(c2cc(N3CCOC[C@@H]3C)nc(-c3ccc(NC(=O)NC4CC4)cc3)n2)CC1 [Example 59a, 3-cyclopropyl-1-[4-[4-[1-[(3,5-dimethyl-1,2-oxazol-4-yl)sulfonyl]cyclopropyl]-6-[(3S)-3-methylmorpholin-4-yl]pyrimidin-2-yl]phenyl]urea]
9.93 | Cc1noc(C)c1S(=O)(=O)C1(c2cc(N3CCOC[C@@H]3C)nc(-c3ccc(NC(=O)NCCO)cc3)n2)CC1 [Example 59b, 1-[4-[4-[1-[(3,5-dimethyl-1,2-oxazol-4-yl)sulfonyl]cyclopropyl]-6-[(3S)-3-methylmorpholin-4-yl]pyrimidin-2-yl]phenyl]-3-(2-hydroxyethyl)urea]
22.6 | Cc1noc(C)c1S(=O)(=O)C1(c2cc(N3CCOC[C@@H]3C)nc(-c3ccc(NC(=O)NCCF)cc3)n2)CC1 [Example 59c, 1-[4-[4-[1-[(3,5-dimethyl-1,2-oxazol-4-yl)sulfonyl]cyclopropyl]-6-[(3S)-3-methylmorpholin-4-yl]pyrimidin-2-yl]phenyl]-3-(2-fluoroethyl)urea]
32 | Cc1noc(C)c1S(=O)(=O)C1(c2cc(N3CCOC[C@@H]3C)nc(-c3ccc(NC(=O)NCC(F)F)cc3)n2)CC1 [Example 59d, 3-(2,2-difluoroethyl)-1-[4-[4-[1-[(3,5-dimethyl-1,2-oxazol-4-yl)sulfonyl]cyclopropyl]-6-[(3S)-3-methylmorpholin-4-yl]pyrimidin-2-yl]phenyl]urea]
293 | Cc1noc(C)c1S(=O)(=O)C1(c2cc(N3CCOC[C@@H]3C)nc(-c3ccc(NC(=O)NCC4(O)CC4)cc3)n2)CC1 [Example 59e, 1-[4-[4-[1-[(3,5-dimethyl-1,2-oxazol-4-yl)sulfonyl]cyclopropyl]-6-[(3S)-3-methylmorpholin-4-yl]pyrimidin-2-yl]phenyl]-3-[(1-hydroxycyclopropyl)methyl]urea]
49.1 | CCNC(=O)Nc1ccc(-c2nc(N3CCOC[C@@H]3C)cc(C3(S(=O)(=O)c4c(C)noc4C)CC3)n2)cc1 [Example 59f, 3-[4-[4-[1-[(3,5-dimethyl-1,2-oxazol-4-yl)sulfonyl]cyclopropyl]-6-[(3S)-3-methylmorpholin-4-yl]pyrimidin-2-yl]phenyl]-1-ethylurea]
101 | Cc1noc(C)c1S(=O)(=O)C1(c2cc(N3CCOC[C@@H]3C)nc(-c3ccc(NC(=O)Nc4cnn(C)c4)cc3)n2)CC1 [Example 59g, 1-[4-[4-[1-[(3,5-dimethyl-1,2-oxazol-4-yl)sulfonyl]cyclopropyl]-6-[(3S)-3-methylmorpholin-4-yl]pyrimidin-2-yl]phenyl]-3-(1-methylpyrazol-4-yl)urea]
19.1 | C[C@H]1COCCN1c1cc(C2(S(=O)(=O)c3cc(F)ccc3F)CC2)nc(-c2ccc(NC(=O)NC3CC3)cc2)n1 [Example 60a, 3-cyclopropyl-1-[4-[4-[1-(2,5-difluorophenyl)sulfonylcyclopropyl]-6-[(3S)-3-methylmorpholin-4-yl]pyrimidin-2-yl]phenyl]urea]
8.62 | C[C@H]1COCCN1c1cc(C2(S(=O)(=O)c3cc(F)ccc3F)CC2)nc(-c2ccc(NC(=O)NCCO)cc2)n1 [Example 60b, 1-[4-[4-[1-(2,5-difluorophenyl)sulfonylcyclopropyl]-6-[(3S)-3-methylmorpholin-4-yl]pyrimidin-2-yl]phenyl]-3-(2-hydroxyethyl)urea]
